Test results published in patent US20120005765A1, “ANIMAL MODEL FOR PARKINSON'S DISEASE” (Saint Louis University, priority 2010, published 2012).
Entries after “also recorded” stand apart in the source; their conditions may differ.

How the values were obtained:
rats = assay: Rotational asymmetry after apomorphine; type: in vivo, rat; details: apomorphine 0.4 mg/kg, n=6, p, 0.05 vs control rats
Method: Determination of DOPAL-induced Parkinson's disease-like behavior Injections of DOPAL or ALDH1A1 antisense oligo into rat SN. To determine if increased levels of DOPAL in SN produces a behavioral model of PD, 3 groups of rats were tested: unilateral SN injection of 4 μg DOPAL in 6 rats; unilateral SN injection of 0.56 μg antisense oligonucleotide (oligo) targeted to aldehyde dehydrogenase (ALDH1A1) mRNA, the DOPAL catabolic enzyme in 3 rats; 5 non-injected rats. After 5-7 weeks, rats were injected with apomorphine (0.4 mg/kg, subcutaneously) and rotational asymmetry determined in each group just prior to sacrifice. After the brains were fixed and sectioned, the SN, and forebrain were stained immunohistochemically for tyrosine hydroxylase immunoreactivity (THir). See Section 3.
Determination of rotational asymmetry. Rats first were injected subcutaneously with the dopamine agonist apomorphine (0.4 mg/kg) dissolved in 0.1 ascorbate saline solution. After waiting 5 min in their home cage, they were placed in a hemispheric rotation bowl 40 cm wide and 20 cm deep. Rotational behavior was then determined for 30 min and the number of ipsilateral and contralateral turns quantified by observation.
Rotational asymmetry was assessed to quantify the effect of unilateral depletions of striatal dopamine from disruptions of nigrostriatal circuitry. The rotational asymmetry behavior of rats (n=6) changed dramatically after injections with DOPAL (FIG. 5).
Behavioral asymmetry is considered the standard behavioral test for rodent models of Parkinson's disease. The column on the right is a summary of all the behaviors recorded in the rotational asymmetry test for all the rats ([…]).

[1] = system: dopaminergic neurons in the substantia nigra; assay: Tyrosine hydroxylase immunohistochemistry and densitometry after DOPAL injection into substantia nigra; type: in vivo, rat
Method: Immunohistochemistry. Eighteen hours (two rats) or 5 days following the surgery the rats were anesthetized and perfused through the left ventricle of the heart with 0.1 M phosphate buffer containing 4% paraformaldehyde. The brains were removed, post-fixed for at least 4 h, sunk in 25% sucrose, and sectioned frozen at 50 pm with a sliding microtome. Adjacent series of sections were subjected to a conventional immunoperoxidase protocol using antibodies against tyrosine hydroxylase (TH; Sigma, monoclonal, made in […], used at a dilution of 1:6000), neuronal nuclear antigen (NeuN, Chemicon, Temecula, Calif., USA, made in rabbit, used at 1:20,000) or glial fibrillary acidic protein (GFAP, made in rabbit, used at 1:5000). Briefly, the sections were immersed overnight in 0.1 M Sorenson's phosphate buffer (SPB, pH 7.4) containing 0.2% Triton X-100 (SPB/Triton) and primary antibody with agitation. The following morning they were thrice rinsed in SPB/Triton and immersed for 1 h in SPB/Triton containing biotinylated secondary antibodies against the host species of the primary antibodies, used at a dilution of 1:200. The sections were again thrice rinsed in SPB/Triton and then immersed in SPB/Triton containing ABC reagents (Vector, Burlingame, Calif., USA) used at a dilution of 1:200. After further rinsing in SPB the sections were reacted with 3,3-diaminobenzidine (DAB) and hydrogen peroxide to produce an insoluble brown reaction product that was further intensified with osmium and thiocarbohydrazide as has been described. All immersions and rinses were done at room temperature. In addition, a series of sections from many of the brains was mounted and processed for Nissl staining using a standard cresyl violet staining procedure. […]
Determination of DOPAL-induced Parkinson's disease-like behavior Injections of DOPAL or ALDH1A1 antisense oligo into rat SN. […] After 5-7 weeks, rats were injected with apomorphine (0.4 mg/kg, subcutaneously) and rotational asymmetry determined in each group just prior to sacrifice. […]

PC12 cells = assay: DOPAL toxicity in vitro, viable PC12 cell count (trypan blue); details: for PC 12 cells/well × 103: rat
Method: Determination of DOPAL toxicity in vitro Toxicity experiments were essentially as described previously. PC12 cultures were initially expanded in T-75 flasks with 20 ml Dulbecco's Modified Eagle's Medium supplemented with 4.5 g/l glucose, 4 mM L-glutamine, 5% fetal calf serum, 10% horse serum, 1000 units/l penicillin, and 100 mg/l streptomycin. Cells were transferred to six well culture plates with 2 ml media and grown to 1.5×10^5 cells/well, treated with 50 ng/ml nerve growth factor (NGF), and maintained in NGF-containing media for 7 d prior to experimentation. The medium was changed every 2-3 d. […] During the experiments, the medium was replaced once a day. Cells were detached with buffered saline containing EDT A, centrifuged at 200×g and resuspended in trypan blue for counting of viable cells. […] DOPAL and other compounds were added as described in the description of the figure and examples. Data was analyzed by ANOVA.
DOPAL, as well as other physiologically metabolites and adducts, were added to PC12 cells in culture at concentrations that were physiologically relevant.

O=CCc1ccc(O)c(O)c1 [DOPAL, 3,4-dihydroxyphenylacetaldehyde]
rotational asymmetry after unilateral DOPAL injection into SN (rats): significantly preferred turning towards the side of the injection; also recorded: turning significantly towards the side of DOPAL injections
immunoreactivity of TH in the SN ipsilateral to injection ([1]; vs contralateral non-injected side): decrease
reduction in TH immunoreactivity in the striatum ipsilateral to injection ([1]; vs contralateral non-injected side, background subtracted): 28%
loss of TH immunoreactivity by spot density, ventrolateral striatum ipsilateral to injection ([1]; vs contralateral side): 80%
toxic in vitro at physiological levels (PC12 cells): toxic
PC 12 cells/well × 103 (PC12 cells; 6.6 μM): 105 ± 12b cells/well × 103
PC 12 cells/well × 103 (PC12 cells; 30 μM): 107 ± 10b cells/well × 103
PC 12 cells/well × 103 (PC12 cells; 66 μM): 100 ± 5a cells/well × 103
